Assay results reported in PubChem BioAssay AID1963875 (Molecular Pharmacology Branch, DTP, NCI, 2024).

System: KRAS-mutant PDC complex spheroid viability
Test: Anticancer human tumor 186277-243-T-J2-PDC patient-derived colon adenocarcinoma cell line growth inhibition [KRAS2]
Conditions: for viability, T/C: stronger effect = lower value
How it was run: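 KRAS-mutant tumor cells were grown as spheroids with HUVEC endothelial cells and human MSCs as stroma. Targeted agents were tested alone and with KRAS pathway inhibitors. Doses started at or near clinical Cmax, or 10 microM, descending half-log.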

[1] = curve of first compound, second compound 0.1 µM
[2] = curve of first compound, second compound 0.316 µM
[3] = curve of first compound, second compound 1 µM
[4] = curve of first compound, second compound 3.16 µM
[5] = curve of first compound, second compound 10 µM
[6] = second compound 0.1 µM, first compound 0.0316 µM
[7] = second compound 0.1 µM, first compound 0.1 µM
[8] = second compound 0.1 µM, first compound 0.316 µM
[9] = second compound 0.1 µM, first compound 1 µM
[10] = second compound 0.1 µM, first compound 3.16 µM
[11] = second compound 0.1 µM, first compound 10 µM
[12] = second compound 0.316 µM, first compound 0.0316 µM
[13] = second compound 0.316 µM, first compound 0.1 µM
[14] = second compound 0.316 µM, first compound 0.316 µM
[15] = second compound 0.316 µM, first compound 1 µM
[16] = second compound 0.316 µM, first compound 3.16 µM
[17] = second compound 0.316 µM, first compound 10 µM
[18] = second compound 1 µM, first compound 0.0316 µM
[19] = second compound 1 µM, first compound 0.1 µM
[20] = second compound 1 µM, first compound 0.316 µM
[21] = second compound 1 µM, first compound 1 µM
[22] = second compound 1 µM, first compound 3.16 µM
[23] = second compound 1 µM, first compound 10 µM
[24] = second compound 3.16 µM, first compound 0.0316 µM
[25] = second compound 3.16 µM, first compound 0.1 µM
[26] = second compound 3.16 µM, first compound 0.316 µM
[27] = second compound 3.16 µM, first compound 1 µM
[28] = second compound 3.16 µM, first compound 3.16 µM
[29] = second compound 3.16 µM, first compound 10 µM
[30] = second compound 10 µM, first compound 0.0316 µM
[31] = second compound 10 µM, first compound 0.1 µM
[32] = second compound 10 µM, first compound 0.316 µM
[33] = second compound 10 µM, first compound 1 µM
[34] = second compound 10 µM, first compound 3.16 µM
[35] = second compound 10 µM, first compound 10 µM
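For viability, T/C in this document: viability read after seven days of compound exposure; 100% = DMSO vehicle-treated spheroids so lower means less viable.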

| Compound | IC50 [1] [nM] | IC50 [2] [nM] | IC50 [3] [nM] | IC50 [4] [nM] | IC50 [5] [nM] | viability, T/C [6] [%] | viability, T/C [7] [%] | viability, T/C [8] [%] | viability, T/C [9] [%] | viability, T/C [12] [%] | viability, T/C [13] [%] | viability, T/C [14] [%] | viability, T/C [15] [%] | viability, T/C [18] [%] | viability, T/C [19] [%] | viability, T/C [20] [%] | viability, T/C [21] [%] | viability, T/C [24] [%] | viability, T/C [25] [%] | viability, T/C [26] [%] | other results |
| --- | --- | --- | --- | --- | --- | --- | --- | --- | --- | --- | --- | --- | --- | --- | --- | --- | --- | --- | --- | --- | --- |
| COc1cc(Nc2ncc3c(n2)-c2ccc(Cl)cc2C(c2c(F)cccc2OC)=NC3)ccc1C(=O)O + CC1OCC2(CCN(c3cnc(Sc4ccnc(N)c4Cl)c(N)n3)CC2)C1N | < 31.6 | < 31.6 | < 31.6 | < 31.6 | < 31.6 | 36 | 32.9 | 33 | 35.2 | 30.3 | 29.7 | 24.5 | 27.9 | 22.2 | 22.8 | 21.1 | 22.1 | 17.1 | 18 | 15.8 | viability, T/C [10]: 38.8%; viability, T/C [11]: 33.8%; viability, T/C [16]: 30.4%; viability, T/C [17]: 27.5%; viability, T/C [22]: 22.6%; viability, T/C [23]: 21.7%; viability, T/C [27]: 15.7%; viability, T/C [28]: 16.1%; viability, T/C [29]: 16.2%; viability, T/C [30]: 13.7%; viability, T/C [31]: 13.9%; viability, T/C [32]: 11.8%; viability, T/C [33]: 11.4%; viability, T/C [34]: 12.1%; viability, T/C [35]: 11.9% |
| COc1cc(OC)cc(N(CCNC(C)C)c2ccc3ncc(-c4cnn(C)c4)nc3c2)c1 |  |  |  |  |  |  |  |  |  |  |  |  |  |  |  |  |  |  |  |  | viability, T/C (compound 0.0316 µM): 109% [middle of 5 runs]; viability, T/C (compound 0.1 µM): 106% [middle of 5 runs] |
| O=C(c1cc(Cc2n[nH]c(=O)c3ccccc23)ccc1F)N1CCN(C(=O)C2CC2)CC1 + CC1OCC2(CCN(c3cnc(Sc4ccnc(N)c4Cl)c(N)n3)CC2)C1N | 6480 | 6080 | 3950 | 1900 | 614 | 118 | 112 | 114 | 109 | 129 | 124 | 106 | 115 | 122 | 113 | 126 | 103 | 92.2 | 94.9 | 87.4 | viability, T/C [10]: 81%; viability, T/C [11]: 31.3%; viability, T/C [16]: 75%; viability, T/C [17]: 28.8%; viability, T/C [22]: 56.8%; viability, T/C [23]: 23.8%; viability, T/C [27]: 70.3%; viability, T/C [28]: 33.9%; viability, T/C [29]: 16.3%; viability, T/C [30]: 86.7%; viability, T/C [31]: 66%; viability, T/C [32]: 62.9%; viability, T/C [33]: 45.8%; viability, T/C [34]: 24.9%; viability, T/C [35]: 14.1% |
| CCN1CCN(Cc2ccc(Nc3ncc(F)c(-c4cc(F)c5nc(C)n(C(C)C)c5c4)n3)nc2)CC1 + CNCc1ccccc1-c1csc(C(C)Nc2nc(C)nc3cc(OC)c(OC)cc23)c1 | > 1000 | 970 | 687 | 115 | < 3.16 | 93 | 117 | 171 | 72.5 | 106 | 144 | 144 | 48.3 | 96.2 | 132 | 119 | 23.6 | 118 | 56 | 14 | viability, T/C (second compound 0.1 µM, first compound 0.00316 µM): 97.5%; viability, T/C (second compound 0.1 µM, first compound 0.01 µM): 86.7%; viability, T/C (second compound 0.316 µM, first compound 0.00316 µM): 87%; viability, T/C (second compound 0.316 µM, first compound 0.01 µM): 91.3%; viability, T/C (second compound 1 µM, first compound 0.00316 µM): 90%; viability, T/C (second compound 1 µM, first compound 0.01 µM): 85.5%; viability, T/C (second compound 3.16 µM, first compound 0.00316 µM): 80.7%; viability, T/C (second compound 3.16 µM, first compound 0.01 µM): 85.4%; viability, T/C [27]: 0.14%; viability, T/C (second compound 10 µM, first compound 0.00316 µM): 0.18%; viability, T/C (second compound 10 µM, first compound 0.01 µM): 0.37%; viability, T/C [30]: 0.19%; viability, T/C [31]: 0.15%; viability, T/C [32]: 0.41%; viability, T/C [33]: 0.15% |
| COC(=O)c1ccc2c(C(=Nc3ccc(N(C)C(=O)CN4CCN(C)CC4)cc3)c3ccccc3)c(O)[nH]c2c1 |  |  |  |  |  |  |  |  |  |  |  |  |  |  |  |  |  |  |  |  | viability, T/C (compound 0.0316 µM): 93.8% [middle of 5 runs]; viability, T/C (compound 0.1 µM): 104% [middle of 5 runs]; viability, T/C (compound 0.316 µM): 99.4% [middle of 5 runs]; viability, T/C (compound 1 µM): 107% [middle of 5 runs]; viability, T/C (compound 10 µM): 16% [middle of 5 runs]; IC50 (curve of compound): 3.62 µM [middle of 4 runs] |
